Reference: ChEMBL document CHEMBL1134027, “An improved method for the rapid preparation of 2-amino-4,4a-dihydro-4a,7-dimethyl-3H-phenoxazine-3-one, a novel antitumor agent” (2001)

Assays:
Type in all cases: functional
[1] = Inhibition of incorporation of [3H]thymidine into DNA of human lymphoid leukemia HAL-01 cell at 100 uM after 2 hr
HL-60 [2] = test: Inhibition of incorporation of [3H]thymidine into DNA of human myeloid leukemia HL-60 cell at 200 uM after 1 hr
HL-60 [3] = test: Inhibition of incorporation of [3H]-thymidine into DNA of human myeloid leukemia HL-60 cell at 0 uM after 4 hr
[4] = Inhibition of incorporation of [3H]thymidine into DNA of human lymphoid leukemia HAL-01 cell at 200 uM after 1 hr
HL-60 [5] = test: Inhibition of incorporation of [3H]thymidine into DNA of human myeloid leukemia HL-60 cell at 200 uM after 2 hr
[6] = Inhibition of incorporation of [3H]thymidine into DNA of human lymphoid leukemia HAL-01 cell at 0 uM after 8 hr
[7] = Inhibition of incorporation of [3H]thymidine into DNA of human lymphoid leukemia HAL-01 cell at 200 uM after 2 hr
[8] = Inhibition of incorporation of [3H]thymidine into DNA of human lymphoid leukemia HAL-01 cell at 0 uM after 4 hr
HL-60 [9] = test: Inhibition of incorporation of [3H]thymidine into DNA of human myeloid leukemia HL-60 cell at 0 uM after 8 hr
HL-60 [10] = test: Inhibition of incorporation of [3H]-thymidine into DNA of human myeloid leukemia HL-60 cell at 100 uM after 4 hr
[11] = Inhibition of incorporation of [3H]thymidine into DNA of human lymphoid leukemia HAL-01 cell at 200 uM after 8 hr
HL-60 [12] = test: Inhibition of incorporation of [3H]thymidine into DNA of human myeloid leukemia HL-60 cell at 0 uM after 1 hr
[13] = Inhibition of incorporation of [3H]thymidine into DNA of human lymphoid leukemia HAL-01 cell at 100 uM after 1 hr
HL-60 [14] = test: Inhibition of incorporation of [3H]thymidine into DNA of human myeloid leukemia HL-60 cell at 200 uM after 8 hr
HL-60 [15] = test: Inhibition of incorporation of [3H]thymidine into DNA of human myeloid leukemia HL-60 cell at 100 uM after 2 hr
[16] = Inhibition of incorporation of [3H]thymidine into DNA of human lymphoid leukemia HAL-01 cell at 200 uM after 4 hr
[17] = Inhibition of incorporation of [3H]thymidine into DNA of human lymphoid leukemia HAL-01 cell at 100 uM after 8 hr
[18] = Inhibition of incorporation of [3H]thymidine into DNA of human lymphoid leukemia HAL-01 cell at 0 uM after 1 hr
[19] = Inhibition of incorporation of [3H]thymidine into DNA of human lymphoid leukemia HAL-01 cell at 0 uM after 2 hr
[20] = Inhibition of incorporation of [3H]thymidine into DNA of human lymphoid leukemia HAL-01 cell at 100 uM after 4 hr
HL-60 [21] = test: Inhibition of incorporation of [3H]thymidine into DNA of human myeloid leukemia HL-60 cell at 100 uM after 8 hr
HL-60 [22] = test: Inhibition of incorporation of [3H]thymidine into DNA of human myeloid leukemia HL-60 cell at 100 uM after 1 hr
HL-60 [23] = test: Inhibition of incorporation of [3H]thymidine into DNA of human myeloid leukemia HL-60 cell at 200 uM after 4 hr
HL-60 [24] = test: Inhibition of incorporation of [3H]thymidine into DNA of human myeloid leukemia HL-60 cell at 0 uM after 2 hr

SMILES: Cc1ccc2c(c1)OC1(C)CC(=O)C(N)=CC1=N2 (centres undefined)
- No. of cells [1]: 17000
- No. of cells (HL-60 [2]): 0
- No. of cells (HL-60 [3]): 25000
- No. of cells [4]: 0
- No. of cells (HL-60 [5]): 6000
- No. of cells [6]: 40000
- No. of cells [7]: 9000
- No. of cells [8]: 34000
- No. of cells (HL-60 [9]): 35000
- No. of cells (HL-60 [10]): 15000
- No. of cells [11]: 14000
- No. of cells (HL-60 [12]): 0
- No. of cells [13]: 0
- No. of cells (HL-60 [14]): 12000
- No. of cells (HL-60 [15]): 14000
- No. of cells [16]: 10000
- No. of cells [17]: 19000
- No. of cells [18]: 0
- No. of cells [19]: 25000
- No. of cells [20]: 18000
- No. of cells (HL-60 [21]): 19000
- No. of cells (HL-60 [22]): 0
- No. of cells (HL-60 [23]): 9000
- No. of cells (HL-60 [24]): 21000
